{"source": "patent US6486166B1", "about": "“Suppression of cyclin kinase 2 activity for prevention and treatment of DNA viral infections” (Board of Regents, The University of Texas, priority 1997, dated 2002)", "key": {"[1]": {"test_system": "HCMV-infected subconfluent LU cells", "experiment": "cell cycle distribution (DNA content by flow cytometry) after HCMV infection of subconfluent LU cells with PAA", "format": "cell-based, human", "details": "for Percent Cells in phase G0/G1 / Percent Cells in phase G2/M / Percent Cells in phase S: HCMV 5 PFU/cell + PAA 100 μg/ml"}, "human lung fibroblasts": {"test_system": "human lung fibroblasts", "details": "100 μg/ml (0.75 mM); cited from earlier work"}, "non-infected LU cells [2]": {"test_system": "non-infected LU cells", "details": "human, 15 μM"}, "HCMV [3]": {"test_system": "HCMV", "experiment": "HCMV DNA abundance in infected LU cells by slot blot hybridization", "format": "cell-based, Human cytomegalovirus strain AD169", "details": "density-arrested LU cells, 72 hr post-infection"}, "HCMV [4]": {"test_system": "HCMV", "experiment": "infectious HCMV yield by plaque assay", "format": "cell-based, Human cytomegalovirus strain AD169"}, "[5]": {"experiment": "tolerated dose in animals", "format": "in vivo", "details": "printed 'tolerated by rate'", "excerpt": "The preferred dosage of inhibitor of cyclin E/Cdk2 activity in a parenteral administration will vary, depending upon the extent of the virus infection, the severity of the symptoms associated with the infection and patient age, weight and medical history. The number of administrations of the parenteral composition will also vary according to the response of the individual patient to the treatment. In one exemplary application. the dosage of inhibitor of cyclin E/Cdk2 activity would vary with the type of disease and the route of administration. Further studies with animal models of infection will completely define projected doses. […] Weaker Cdk2 inhibitors will be needed at higher concentrations, and stronger, at lower."}, "HCMV-infected LU cells": {"test_system": "HCMV-infected LU cells", "experiment": "hematoxylin and eosin staining of HCMV-infected LU cells", "details": "15 μM; 96 hr after infection"}, "non-infected LU cells [6]": {"test_system": "non-infected LU cells", "experiment": "effects on non-infected LU cells (morphology, flow cytometry, BrdU incorporation)", "details": "15 μM for 96 hr"}}, "note": "Entries after “also recorded” stand apart in the source; their conditions may differ.", "data": [{"smiles": "O=C(O)CP(=O)(O)O", "note": "[PAA, phosphonoacetic acid]", "values": [{"measurement": "Percent Cells in phase G0/G1", "setting": "[1]; 0 hours after treatment", "result": "93.3 (1.2) percent"}, {"measurement": "Percent Cells in phase G2/M", "setting": "[1]; 0 hours after treatment", "result": "5.1 (1.0) percent"}, {"measurement": "Percent Cells in phase S", "setting": "[1]; 0 hours after treatment", "result": "1.6 (0.2) percent"}, {"measurement": "Percent Cells in phase G0/G1", "setting": "[1]; 24 hours after treatment", "result": "97.2 (0.4) percent"}, {"measurement": "Percent Cells in phase G2/M", "setting": "[1]; 24 hours after treatment", "result": "1.9 (0.3) percent"}, {"measurement": "Percent Cells in phase S", "setting": "[1]; 24 hours after treatment", "result": "0.9 (0.1) percent"}, {"measurement": "Percent Cells in phase G0/G1", "setting": "[1]; 48 hours after treatment", "result": "97.1 (0.8) percent"}, {"measurement": "Percent Cells in phase G2/M", "setting": "[1]; 48 hours after treatment", "result": "1.3 (0.4) percent"}, {"measurement": "Percent Cells in phase S", "setting": "[1]; 48 hours after treatment", "result": "1.5 (0.4) percent"}, {"measurement": "Percent Cells in phase G0/G1", "setting": "[1]; 72 hours after treatment", "result": "97.2 (0.3) percent"}, {"measurement": "Percent Cells in phase G2/M", "setting": "[1]; 72 hours after treatment", "result": "0.9 (0.1) percent"}, {"measurement": "Percent Cells in phase S", "setting": "[1]; 72 hours after treatment", "result": "1.9 (0.3) percent"}, {"measurement": "increase in DNA content after HCMV infection", "setting": "[1]; subconfluent LU cells infected in the presence of PAA", "result": "no detectable increase in DNA content"}, {"measurement": "effect on viral DNA replication", "setting": "human lung fibroblasts", "result": "blocks viral DNA replication"}]}, {"smiles": "Cn1cnc2c(NCc3ccccc3)nc(NCCO)nc21", "note": "[olomoucine]", "values": [{"measurement": "cells able to incorporate bromodeoxyuridine (BrdU) after removal of the inhibitor", "setting": "non-infected LU cells [2]", "result": "more than 70%"}]}, {"smiles": "CC[C@H](CO)Nc1nc(NCc2ccccc2)c2ncn(C(C)C)c2n1", "note": "[roscovitine]", "values": [{"measurement": "HCMV DNA abundance reduced", "setting": "HCMV [3]; 1 μM", "result": "~50", "unit": "%"}, {"measurement": "viral DNA abundance reduced", "setting": "HCMV [3]; 10 μM", "result": "> 90", "unit": "%"}, {"measurement": "infectious HCMV yields reduced", "setting": "HCMV [4]; 2.5 μM, 96 hr post-infection", "result": "> 90", "unit": "%"}, {"measurement": "inhibition at 10 µM", "setting": "HCMV [4]; Human betaherpesvirus 5, 96 h, read-out: inhibition of infectious HCMV yields", "result": "> 99.9", "unit": "%"}, {"measurement": "tolerated dose", "setting": "[5]", "result": 3, "unit": "µg/kg"}, {"measurement": "morphology of HCMV-infected cells", "setting": "HCMV-infected LU cells", "result": "clearly dying or dead"}, {"measurement": "morphological changes of non-infected LU cells", "setting": "non-infected LU cells [6]", "result": "no morphological changes; also recorded: did not present with any obvious morphological changes"}, {"measurement": "cell cycle state of non-infected cells", "setting": "non-infected LU cells [6]; flow cytometry", "result": "arrested in G0/G1 or G2/M phase"}]}]}
